Source: patent US20220184155A1, “BACTERIOPHAGES FOR INHIBITING BACTERIA” (REGENTS OF THE UNIVERSITY OF MINNESOTA, priority 2020, published 2022)
Read-outs that look alike come from different tables or passages of the source.

Tested on: mix-culture of E. coli strains (E20, 41, 55, and 59)
Test: Checkerboard titration assay, phage cocktail with antibiotics
Format: cell-based
Method: A checkerboard titration assay was performed as described previously (Hsieh et al. Diagn Microbiol Infect Dis 16, 343-349 (1993)). Briefly, antibiotics (cefoperazone, vancomycin, polymyxin B, and rifampicin) were two-fold serially diluted on each column, and phage cocktail was 10-fold diluted on each row. The mix-culture of E. coli strains (E20, 41, 55, and 59) was added to 10^5 CFU/well, and the plate was incubated at 42° C. for 24 hours. The OD600 was measured with SpectaMax i3 Platfrom (Molecular Devices, San Jose, Calif.), and shown as a heat plot.
Because the selective pressure of the enrichment media is determined by antibiotic supplements in the media, the inhibition efficacy of the phage cocktail was measured in the presence of four antibiotics (cefoperazone, vancomycin, polymyxin B, and rifampicin) used in BB and PB. […] A checkerboard assay was performed to examine the antimicrobial activity of the phage cocktail in combination with antibiotics.

[1] = Escherichia coli, antibiotic without the phage cocktail, 42° C., 24 hours, read-out: MIC
[2] = antibiotic without the phage cocktail, 42° C., 24 hours

`CCN1CCN(C(=O)N[C@@H](C(=O)N[C@@H]2C(=O)N3C(C(=O)O)=C(CSc4nnnn4C)CS[C@H]23)c2ccc(O)cc2)C(=O)C1=O` [cefoperazone] was tested, and the MIC [1] was over 512 µg/mL and the MIC [2] was over 512 µg/mL.

`CO[C@H]1/C=C/O[C@@]2(C)Oc3c(C)c(O)c4c(O)c(c(/C=N/N5CCN(C)CC5)c(O)c4c3C2=O)NC(=O)/C(C)=C\C=C\[C@H](C)[C@H](O)[C@@H](C)[C@@H](O)[C@@H](C)[C@H](OC(C)=O)[C@@H]1C` [rifampicin] showed an MIC [1] of 32 µg/mL.

`CN[C@H](CC(C)C)C(=O)N[C@H]1C(=O)N[C@@H](CC(N)=O)C(=O)N[C@H]2C(=O)N[C@H]3C(=O)N[C@H](C(=O)N[C@H](C(=O)O)c4cc(O)cc(O)c4-c4cc3ccc4O)[C@H](O)c3ccc(c(Cl)c3)Oc3cc2cc(c3O[C@@H]2O[C@H](CO)[C@@H](O)[C@H](O)[C@H]2O[C@H]2C[C@](C)(N)[C@H](O)[C@H](C)O2)Oc2ccc(cc2Cl)[C@H]1O` [vancomycin] was tested, and the MIC (Escherichia coli, 24 h) was 64 µg/mL.

In the case of polymyxin B, the MIC [2] is reported as 4 µg/mL.
